Test results: the kinase profiling compilation of Christmann-Franck et al. (2016)

Tests used:
[1] = target: PIM1 (human) (UniProt P11309); experiment: SelectScreen, TR FRET
[2] = target: PIM2 (human) (UniProt Q9P1W9); experiment: SelectScreen, TR FRET
[3] = target: GSK3A (human) (UniProt P49840); experiment: KINOMEscan competition binding; details: compound 10.0 µM
[4] = target: CDK16 (human) (UniProt Q00536); experiment: KINOMEscan competition binding; details: compound 10.0 µM
[5] = target: PIM3 (human) (UniProt Q86V86); experiment: KINOMEscan competition binding; details: compound 10.0 µM
[6] = target: CLK1 (human) (UniProt P49759); experiment: KINOMEscan competition binding; details: compound 10.0 µM
[7] = target: ACVR2B (human) (UniProt Q13705); experiment: KINOMEscan competition binding; details: compound 10.0 µM
[8] = target: PIM1 (human) (UniProt P11309); experiment: KINOMEscan competition binding; details: compound 10.0 µM
[9] = target: DAPK2 (human) (UniProt Q9UIK4); experiment: KINOMEscan competition binding; details: compound 10.0 µM
[10] = target: MAPK15 (human) (UniProt Q8TD08); experiment: KINOMEscan competition binding; details: compound 10.0 µM
[11] = target: STK17A (human) (UniProt Q9UEE5); experiment: KINOMEscan competition binding; details: compound 10.0 µM
[12] = target: TGFBR2 (human) (UniProt P37173); experiment: KINOMEscan competition binding; details: compound 10.0 µM
[13] = target: TAOK1 (human) (UniProt Q7L7X3); experiment: KINOMEscan competition binding; details: compound 10.0 µM
[14] = target: CLK4 (human) (UniProt Q9HAZ1); experiment: KINOMEscan competition binding; details: compound 10.0 µM
[15] = target: STK17B (human) (UniProt O94768); experiment: KINOMEscan competition binding; details: compound 10.0 µM
[16] = target: PIM2 (human) (UniProt Q9P1W9); experiment: KINOMEscan competition binding; details: compound 10.0 µM
[17] = target: MAP2K3 (human) (UniProt P46734); experiment: KINOMEscan competition binding; details: compound 10.0 µM
[18] = target: HIPK1 (human) (UniProt Q86Z02); experiment: KINOMEscan competition binding; details: compound 10.0 µM
[19] = target: TTK (human) (UniProt P33981); experiment: SelectScreen, TR FRET
[20] = target: TTK (human) (UniProt P33981); experiment: KINOMEscan competition binding
[21] = target: SRPK1 (human) (UniProt Q96SB4); experiment: KINOMEscan competition binding; details: compound 10.0 µM
[22] = target: SRPK3 (human) (UniProt Q9UPE1); experiment: KINOMEscan competition binding; details: compound 10.0 µM
[23] = target: TYK2 JH2 pseudokinase (human) (UniProt P29597); experiment: KINOMEscan competition binding; details: compound 10.0 µM
[24] = target: AAK1 (human) (UniProt Q2M2I8); experiment: KINOMEscan competition binding; details: compound 10.0 µM
[25] = target: RIOK1 (human) (UniProt Q9BRS2); experiment: KINOMEscan competition binding; details: compound 10.0 µM
[26] = target: BMP2K (human) (UniProt Q9NSY1); experiment: KINOMEscan competition binding; details: compound 10.0 µM
[27] = target: MYLK4 (human) (UniProt Q86YV6); experiment: KINOMEscan competition binding; details: compound 10.0 µM
[28] = target: RIOK3 (human) (UniProt O14730); experiment: KINOMEscan competition binding; details: compound 10.0 µM
[29] = target: CLK2 (human) (UniProt P49760); experiment: KINOMEscan competition binding; details: compound 10.0 µM
[30] = target: CHUK (human) (UniProt O15111); experiment: KINOMEscan competition binding; details: compound 10.0 µM
[31] = target: PLK3 (human) (UniProt Q9H4B4); experiment: KINOMEscan competition binding; details: compound 10.0 µM
[32] = target: GAK (human) (UniProt O14976); experiment: KINOMEscan competition binding; details: compound 10.0 µM
[33] = target: FLT3 (human) (UniProt P36888); experiment: KINOMEscan competition binding; details: compound 10.0 µM
[34] = target: PTK2 (human) (UniProt Q05397); experiment: KINOMEscan competition binding; details: compound 10.0 µM
[35] = target: STK33 (human) (UniProt Q9BYT3); experiment: KINOMEscan competition binding; details: compound 10.0 µM
[36] = target: PLK1 (human) (UniProt P53350); experiment: KINOMEscan competition binding; details: compound 10.0 µM
[37] = target: PLK4 (human) (UniProt O00444); experiment: KINOMEscan competition binding; details: compound 10.0 µM
[38] = system: EGFR (human), P00533 [G719S]; experiment: KINOMEscan competition binding; details: compound 10.0 µM

TTK (human), sequence (P33981 whole entry, looked up): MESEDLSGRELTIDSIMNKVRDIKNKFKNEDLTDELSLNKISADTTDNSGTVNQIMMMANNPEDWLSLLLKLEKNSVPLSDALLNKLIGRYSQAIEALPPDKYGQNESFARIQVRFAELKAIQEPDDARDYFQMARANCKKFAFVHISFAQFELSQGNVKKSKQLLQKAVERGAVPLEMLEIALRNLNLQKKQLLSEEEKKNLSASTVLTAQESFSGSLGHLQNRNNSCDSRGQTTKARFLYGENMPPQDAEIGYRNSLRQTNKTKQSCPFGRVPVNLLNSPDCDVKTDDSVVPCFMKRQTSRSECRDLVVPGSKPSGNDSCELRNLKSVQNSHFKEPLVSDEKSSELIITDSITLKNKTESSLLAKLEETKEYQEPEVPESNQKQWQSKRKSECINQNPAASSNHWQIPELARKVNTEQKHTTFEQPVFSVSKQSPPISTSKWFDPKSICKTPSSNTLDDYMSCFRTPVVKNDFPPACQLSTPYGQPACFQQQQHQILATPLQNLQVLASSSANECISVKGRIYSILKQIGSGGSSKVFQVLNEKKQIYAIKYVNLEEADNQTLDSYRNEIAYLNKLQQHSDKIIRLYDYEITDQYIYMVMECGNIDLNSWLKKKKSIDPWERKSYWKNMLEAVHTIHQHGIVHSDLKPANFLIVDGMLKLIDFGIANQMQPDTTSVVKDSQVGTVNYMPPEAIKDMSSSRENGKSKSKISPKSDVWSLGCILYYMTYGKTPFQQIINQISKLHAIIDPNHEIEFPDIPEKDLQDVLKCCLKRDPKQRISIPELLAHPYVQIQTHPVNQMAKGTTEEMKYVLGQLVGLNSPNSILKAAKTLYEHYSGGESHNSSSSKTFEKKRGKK
PIM2 (human), sequence (Q9P1W9 whole entry, looked up): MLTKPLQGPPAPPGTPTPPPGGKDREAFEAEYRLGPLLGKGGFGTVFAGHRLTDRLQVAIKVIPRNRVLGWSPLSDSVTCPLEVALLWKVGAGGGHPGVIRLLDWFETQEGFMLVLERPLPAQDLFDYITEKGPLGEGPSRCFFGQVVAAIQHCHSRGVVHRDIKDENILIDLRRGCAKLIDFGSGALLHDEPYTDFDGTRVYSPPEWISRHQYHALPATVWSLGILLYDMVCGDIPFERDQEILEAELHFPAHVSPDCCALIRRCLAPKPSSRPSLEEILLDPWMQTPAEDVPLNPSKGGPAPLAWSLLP
PIM1 (human), sequence (P11309 whole entry, looked up): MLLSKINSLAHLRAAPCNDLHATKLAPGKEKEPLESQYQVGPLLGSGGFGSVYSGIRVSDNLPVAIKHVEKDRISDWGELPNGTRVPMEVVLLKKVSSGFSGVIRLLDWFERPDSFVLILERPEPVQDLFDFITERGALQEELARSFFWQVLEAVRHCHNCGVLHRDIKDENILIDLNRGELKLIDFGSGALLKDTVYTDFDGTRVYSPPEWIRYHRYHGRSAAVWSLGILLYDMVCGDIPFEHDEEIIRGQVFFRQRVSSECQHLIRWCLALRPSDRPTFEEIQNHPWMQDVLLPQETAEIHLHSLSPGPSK
MAP2K3 (human), sequence (P46734 whole entry, looked up): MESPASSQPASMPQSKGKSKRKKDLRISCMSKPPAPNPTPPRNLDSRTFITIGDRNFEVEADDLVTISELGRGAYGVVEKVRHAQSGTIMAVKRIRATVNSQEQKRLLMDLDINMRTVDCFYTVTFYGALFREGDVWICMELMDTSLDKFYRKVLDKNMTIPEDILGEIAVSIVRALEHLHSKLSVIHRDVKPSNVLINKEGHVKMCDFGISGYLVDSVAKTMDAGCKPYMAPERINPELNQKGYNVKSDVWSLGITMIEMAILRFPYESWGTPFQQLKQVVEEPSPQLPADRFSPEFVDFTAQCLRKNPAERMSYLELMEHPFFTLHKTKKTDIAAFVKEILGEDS
MAPK15 (human), sequence (Q8TD08 whole entry, looked up): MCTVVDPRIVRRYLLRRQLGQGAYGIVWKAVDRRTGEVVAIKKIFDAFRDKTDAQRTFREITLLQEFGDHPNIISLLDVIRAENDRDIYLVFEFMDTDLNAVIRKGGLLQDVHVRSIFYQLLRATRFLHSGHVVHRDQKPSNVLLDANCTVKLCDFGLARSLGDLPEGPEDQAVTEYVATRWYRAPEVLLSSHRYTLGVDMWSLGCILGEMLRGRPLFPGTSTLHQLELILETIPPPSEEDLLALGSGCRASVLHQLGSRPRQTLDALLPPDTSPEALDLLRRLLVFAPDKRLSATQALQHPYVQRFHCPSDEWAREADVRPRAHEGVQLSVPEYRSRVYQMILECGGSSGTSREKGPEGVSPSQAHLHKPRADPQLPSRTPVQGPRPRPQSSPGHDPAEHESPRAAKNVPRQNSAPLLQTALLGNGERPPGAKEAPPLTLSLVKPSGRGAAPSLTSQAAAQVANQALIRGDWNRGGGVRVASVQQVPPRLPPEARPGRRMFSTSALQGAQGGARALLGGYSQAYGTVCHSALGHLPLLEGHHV
STK17A (human), sequence (Q9UEE5 whole entry, looked up): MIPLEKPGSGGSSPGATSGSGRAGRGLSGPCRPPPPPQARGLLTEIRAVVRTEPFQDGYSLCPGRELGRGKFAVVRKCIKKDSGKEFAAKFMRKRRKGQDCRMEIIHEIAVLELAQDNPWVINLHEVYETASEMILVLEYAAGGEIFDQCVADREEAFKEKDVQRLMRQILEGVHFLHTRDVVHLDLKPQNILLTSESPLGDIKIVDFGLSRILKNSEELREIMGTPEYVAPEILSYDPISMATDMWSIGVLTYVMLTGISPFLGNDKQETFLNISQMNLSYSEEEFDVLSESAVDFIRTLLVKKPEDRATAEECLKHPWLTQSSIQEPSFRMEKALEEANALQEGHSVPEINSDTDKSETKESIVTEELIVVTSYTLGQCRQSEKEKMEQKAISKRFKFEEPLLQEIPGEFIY
HIPK1 (human), sequence (Q86Z02 whole entry, looked up): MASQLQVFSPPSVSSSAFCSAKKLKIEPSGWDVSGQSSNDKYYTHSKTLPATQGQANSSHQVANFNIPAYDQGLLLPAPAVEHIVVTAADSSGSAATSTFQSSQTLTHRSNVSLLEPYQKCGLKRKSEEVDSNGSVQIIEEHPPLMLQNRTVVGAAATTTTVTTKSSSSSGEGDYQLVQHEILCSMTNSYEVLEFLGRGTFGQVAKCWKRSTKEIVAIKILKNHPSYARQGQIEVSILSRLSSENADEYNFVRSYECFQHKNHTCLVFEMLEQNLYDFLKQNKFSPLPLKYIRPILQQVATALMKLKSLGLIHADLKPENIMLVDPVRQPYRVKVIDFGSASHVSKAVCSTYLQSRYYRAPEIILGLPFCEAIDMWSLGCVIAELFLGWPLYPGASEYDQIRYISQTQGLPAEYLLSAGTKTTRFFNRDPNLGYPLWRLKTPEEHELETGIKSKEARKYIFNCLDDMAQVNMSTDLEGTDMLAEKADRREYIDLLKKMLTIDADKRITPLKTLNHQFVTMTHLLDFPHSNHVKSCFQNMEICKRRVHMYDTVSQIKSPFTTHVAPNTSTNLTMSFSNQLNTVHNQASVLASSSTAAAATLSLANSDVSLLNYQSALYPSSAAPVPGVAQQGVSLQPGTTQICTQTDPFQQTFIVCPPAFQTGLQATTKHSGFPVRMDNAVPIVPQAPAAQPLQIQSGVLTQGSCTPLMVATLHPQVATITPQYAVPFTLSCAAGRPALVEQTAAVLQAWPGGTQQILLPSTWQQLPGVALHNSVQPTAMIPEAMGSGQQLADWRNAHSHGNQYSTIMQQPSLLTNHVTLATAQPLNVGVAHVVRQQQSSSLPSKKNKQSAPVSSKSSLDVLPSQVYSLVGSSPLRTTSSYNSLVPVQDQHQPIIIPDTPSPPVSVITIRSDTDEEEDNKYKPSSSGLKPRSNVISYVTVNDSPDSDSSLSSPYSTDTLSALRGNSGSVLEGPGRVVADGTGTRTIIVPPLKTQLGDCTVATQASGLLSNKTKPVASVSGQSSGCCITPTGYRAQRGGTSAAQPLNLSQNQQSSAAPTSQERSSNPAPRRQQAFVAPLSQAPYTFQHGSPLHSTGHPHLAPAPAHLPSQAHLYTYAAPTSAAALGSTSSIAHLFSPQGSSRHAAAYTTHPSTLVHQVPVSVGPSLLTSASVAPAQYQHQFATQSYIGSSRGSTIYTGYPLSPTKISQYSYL
CDK16 (human), sequence (Q00536 whole entry, looked up): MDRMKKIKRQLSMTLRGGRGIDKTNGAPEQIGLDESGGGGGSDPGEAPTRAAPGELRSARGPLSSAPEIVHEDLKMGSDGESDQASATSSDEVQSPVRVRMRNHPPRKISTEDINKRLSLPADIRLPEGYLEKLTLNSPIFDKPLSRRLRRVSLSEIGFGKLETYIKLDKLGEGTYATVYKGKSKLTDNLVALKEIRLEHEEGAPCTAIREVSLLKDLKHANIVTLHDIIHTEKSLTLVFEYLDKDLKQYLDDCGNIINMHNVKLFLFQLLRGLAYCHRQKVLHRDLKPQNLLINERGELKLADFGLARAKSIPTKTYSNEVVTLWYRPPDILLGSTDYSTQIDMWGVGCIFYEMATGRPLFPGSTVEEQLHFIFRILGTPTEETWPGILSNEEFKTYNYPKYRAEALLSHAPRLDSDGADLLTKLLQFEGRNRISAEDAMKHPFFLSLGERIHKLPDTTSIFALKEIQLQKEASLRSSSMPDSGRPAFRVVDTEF

In the case of N=C1NC(=O)/C(=C/c2ccc(-c3ccc(Cl)cc3)o2)S1, the IC50 [1] is reported as 895 nM, the IC50 [2] is reported as 7830 nM and the kinase still bound, per cent of control [3] is reported as 7.8%. It also gave a kinase still bound, per cent of control [4] of 14%, a kinase still bound, per cent of control [5] of 3.9% and a kinase still bound, per cent of control [6] of 34%. The kinase still bound, per cent of control [7] was 25%, the kinase still bound, per cent of control [8] was 9.2% and the kinase still bound, per cent of control [9] was 33%. The kinase still bound, per cent of control [10] was 1.4%, the kinase still bound, per cent of control [11] was 1.8% and the kinase still bound, per cent of control [12] was 10%. For the same compound, the kinase still bound, per cent of control [13] was 11%, the kinase still bound, per cent of control [14] was 30% and the kinase still bound, per cent of control [15] was 2.1%. The kinase still bound, per cent of control [16] was 1.4%, the kinase still bound, per cent of control [17] was 5.6% and the kinase still bound, per cent of control [18] was 0.2%.
For CC[C@@H]1C(=O)N(C)c2cnc(Nc3ccc(N(C)CCCO)cc3OC)nc2N1C1CCCC1, the IC50 [19] was > 10000 nM and the Kd [20] was 3100 nM.
Compound NS(=O)(=O)c1ccc(-c2ccc(/C=C3\C(=O)Nc4ccccc43)o2)cc1 has a kinase still bound, per cent of control [21] of 12%, a kinase still bound, per cent of control [5] of 28% and a kinase still bound, per cent of control [22] of 26%. The kinase still bound, per cent of control [23] was 24%, the kinase still bound, per cent of control [24] was 23% and the kinase still bound, per cent of control [25] was 11%. It also gave a kinase still bound, per cent of control [11] of 12%, a kinase still bound, per cent of control [26] of 7.7% and a kinase still bound, per cent of control [27] of 3.1%. The kinase still bound, per cent of control [28] was 6.2% and the kinase still bound, per cent of control [29] was 25%.
O=C1NC(=S)S/C1=C\c1ccc(-c2cccc3cc[nH]c23)o1 was tested, and the IC50 [1] was 905 nM, the IC50 [2] was 509 nM and the IC50 [19] was 145 nM.
In the case of CC[C@@H]1C(=O)N(C)c2cnc(Nc3ccc(N4CCCC(O)C4)cc3OC)nc2N1C1CCCC1 (some centres undefined), the IC50 [19] is reported as > 10000 nM and the Kd [20] is reported as 2650 nM.
For NS(=O)(=O)c1ccc(-c2ccc(/C=C3\NC(=S)NC3=O)o2)cc1, the kinase still bound, per cent of control [30] was 32%.
In the case of CCOc1cc(N2CCC(O)CC2)ccc1Nc1ncc2c(n1)N(C1CCCC1)CCC(=O)N2C, the kinase still bound, per cent of control [31] is reported as 15%, the kinase still bound, per cent of control [32] is reported as 2% and the kinase still bound, per cent of control [33] is reported as 0%. The kinase still bound, per cent of control [34] was 24%, the kinase still bound, per cent of control [35] was 32% and the kinase still bound, per cent of control [36] was 4.3%. It also gave a kinase still bound, per cent of control [37] of 27% and a kinase still bound, per cent of control ([20]; compound 10.0 µM) of 3.2%.
Compound CS(=O)(=O)Nc1ccc(-c2cccc(/C=C3\SC(=N)NC3=O)n2)cc1 has a kinase still bound, per cent of control [4] of 10%, a kinase still bound, per cent of control [5] of 13% and a kinase still bound, per cent of control [8] of 23%. For the same compound, the kinase still bound, per cent of control [10] was 22%, the kinase still bound, per cent of control [38] was 16% and the kinase still bound, per cent of control [13] was 26%. For the same compound, the kinase still bound, per cent of control [16] was 9.2%, the kinase still bound, per cent of control [17] was 21% and the kinase still bound, per cent of control [18] was 0.4%.
